Molecular target: T1, human vasopressin V2 receptor subtype (Homo sapiens, UniProt P30518)
T1 construct: host or cells: CHO cells (pZeoSV vector)
Experiment: Vasopressin binding in Chinese Hamster Ovary cell membranes expressing human vasopressin V2 subtype receptors
Conditions: CHO cell membranes, [3H]arginine vasopressin; for IC50: values in parentheses; for inhibition at 0.1 µM: 100 nM, values without parentheses
Procedure, shortened: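 Radioligand displacement on membranes from CHO cells stably expressing human V2 receptor, 25 to 50 μg protein/well, in 50 mM Tris-HCl pH 7.4 with MgCl2, BSA and protease inhibitors. [^3H]arginine vasopressin (8 nM working solution) incubated 60 min at room temperature; bound label measured by filtration and scintillation counting.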

T1 sequence (P30518 whole entry): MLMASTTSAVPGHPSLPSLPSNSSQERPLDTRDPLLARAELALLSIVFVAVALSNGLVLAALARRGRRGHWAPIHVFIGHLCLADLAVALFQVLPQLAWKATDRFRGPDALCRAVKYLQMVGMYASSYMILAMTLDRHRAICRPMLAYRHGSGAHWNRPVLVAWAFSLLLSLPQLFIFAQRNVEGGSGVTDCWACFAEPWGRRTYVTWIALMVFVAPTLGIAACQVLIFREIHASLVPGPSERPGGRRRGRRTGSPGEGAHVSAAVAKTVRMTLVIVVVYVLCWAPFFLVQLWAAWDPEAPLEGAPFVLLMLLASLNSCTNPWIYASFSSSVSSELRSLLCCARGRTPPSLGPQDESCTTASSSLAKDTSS

| SMILES | IC50 [nM] | inhibition at 0.1 µM [%] |
| --- | --- | --- |
| COc1cc(-c2ccccc2C)c(Cl)cc1C(=O)N1Cc2ccc(C(=O)N3CCC(N4CCCC4)CC3)n2Cc2ccccc21 [Example 136, {10-[(6-Chloro-3-methoxy-2′-methyl[1,1′-biphenyl]-4-yl)carbonyl]-10,11-dihydro-5H-pyrrolo[2,1-c][1,4]benzodiazepin-3-yl}[4-(1-pyrrolidinyl)-1-piperidinyl]methanone] | 597 | – |
| COc1cc(C(=O)N2Cc3cccn3Cc3ccccc32)ccc1-n1c(C)ccc1C [Example 27, [4-(2,5-Dimethyl-1-H-pyrrol-1-yl)-3-methoxy-phenyl][10,11-dihydro-5H-pyrrolo[2,1-c][1,4]benzodiazepin-10-yl]methanone] | 149 | – |
| COc1cc(-c2ccccc2F)c(Cl)cc1C(=O)N1Cc2cccn2Cc2ccccc21 [Example 18B, 10-{[6-Chloro-3-methoxy-2′-fluoro-[1,1′-biphenyl]-4-yl]carbonyl}-10,11-dihydro-5H-pyrrolo[2,1-c][1,4]benzodiazepine] | 189 | – |
| COc1ccccc1-c1ccc(C(=O)N2Cc3ccc(C(=O)N4CCC(N5CCCCC5)CC4)n3Cc3ccccc32)cc1 [Example 111, {10-[(2′-Methoxy[1,1′-biphenyl]-4-yl)carbonyl]-10,11-dihydro-5H-pyrrolo[2,1-c][1,4]benzodiazepin-3-yl}[4-(1-piperidinyl)-1-piperidinyl]methanone] | 772 | – |
| COc1cc(-c2ccccc2C(F)(F)F)c(OC)cc1C(=O)N1Cc2cccn2Cc2ccccc21 [Example 32, 10-{[3,6-Dimethoxy-2′-trifluoromethyl-[1,1′-biphenyl]-4-yl]carbonyl}-10,11-dihydro-5H-pyrrolo[2,1-c][1,4]benzodiazepine] | 605 | – |
| Cc1cc(C(=O)N2Cc3ccc(C(=O)N4CCCN(C)CC4)n3Cc3ccccc32)ccc1-c1ccccc1C(F)(F)F [Example 59, (4-Methyl-1,4-diazepan-1-yl)(10-{[2-methyl-2′-(trifluoromethyl)[1,1′-biphenyl]-4-yl]carbonyl}-10,11-dihydro-5H-pyrrolo[2,1-c][1,4]benzodiazepin-3-yl)methanone] | 2310 | – |

The next lines start with the values.

| IC50 [nM] | inhibition at 0.1 µM [%] | SMILES |
| --- | --- | --- |
| 700 | – | COc1ccccc1-c1ccc(C(=O)N2Cc3ccc(C(=O)N4CCN(C)CC4)n3Cc3ccccc32)cc1 [Example 48, {10-[(2′-Methoxy[1,1′-biphenyl]-4-yl)carbonyl]-10,11-dihydro-5H-pyrrolo[2,1-c][1,4]benzodiazepin-3-yl}(4-methyl-1-piperazinyl)methanone] |
| – | 21 | COc1ccccc1-c1ccc(C(=O)N2Cc3ccc(C(=O)NCCCN(C)C)n3Cc3ccccc32)cc1OC [Example 81, 10-[(2,2′-Dimethoxy[1,1′-biphenyl]-4-yl)carbonyl]-N-[3-(dimethylamino)propyl]-10,11-dihydro-5H-pyrrolo[2,1-c][1,4]benzodiazepine-3-carboxamide] |
| – | 20 | COc1cc(C(=O)N2Cc3ccc(C(=O)N(C)CCN(C)C)n3Cc3ccccc32)ccc1-c1ccccc1C [Example 92, N-[2-(Dimethylamino)ethyl]-10-[(2-methoxy-2′-methyl[1,1′-biphenyl]-4-yl)carbonyl]-N-methyl-10,11-dihydro-5H-pyrrolo[2,1-c][1,4]benzodiazepine-3-carboxamide] |
| – | 7 | Cc1ccccc1-c1ccc(C(=O)N2Cc3ccc(C(=O)N(C)CCCN(C)C)n3Cc3ccccc32)cc1C [Example 101, N-[3-(Dimethylamino)propyl]-10-[(2,2′-dimethyl[1,1′-biphenyl]-4-yl)carbonyl]-N-methyl-10,11-dihydro-5H-pyrrolo[2,1-c][1,4]benzodiazepine-3-carboxamide] |
| 423 | – | COc1ccccc1-c1ccc(C(=O)N2Cc3ccc(C(=O)N4CCN(CCCN(C)C)CC4)n3Cc3ccccc32)cc1C [Example 245, {4-[3-(Dimethylamino)propyl]-1-piperazinyl}{10-[(2′-methoxy-2-methyl[1,1′-biphenyl]-4-yl)carbonyl]-10,11-dihydro-5H-pyrrolo[2,1-c][1,4]benzodiazepin-3-yl}methanone] |

Source: US7109193B2, “Tricyclic diazepines tocolytic oxytocin receptor antagonists” (Wyeth, priority 2001, dated 2006)
